These are literature values, as cited in publication PMC12844998, “Bridging the Knowledge Gap in Harmaline’s Pharmacological Properties: A Focus on Thermodynamics and Kinetics” (Pharmaceutics, 2025).

A word on the logP: it is a log measure of how a compound divides between an organic and an aqueous phase.

The conditions of this data set: source not stated; cited from earlier work.

In the case of `CCCCCC` [Hex, n-Hexane], the logP is on record as 3.5.
